Laboratory results reported in US8609725B2, “Method of using beta-hydroxy-beta-methylbutyrate for reducing tumor growth rate” (Abbott Laboratories, priority 2004, dated 2013).

What was measured:
[1] = test system: ubiquitin-conjugating enzyme, E214k; experiment: Western blotting of E214k in gastrocnemius muscle of MAC16 mice; assay type: in vivo, NMRI mice; settings: HMB 0.25 g/kg, EPA 0.6 g/kg or combination, 3 days
Experimental: For Western blotting samples of soleus muscle cytosolic protein (2 to 5 μg), obtained from the above assay, were resolved on 10% SDS-PAGE and transferred to 0.45 μm nitrocellulose membrane (HybondTM, Amersham Life Science Products, Bucks, United Kingdom), which had been blocked with 5% Marvel in PBS. The primary antibodies for MSS1 and p42 were used at a dilution of 1:5000, for 20S proteasome α-subunits at 1:1500 and for β-subunits at 1:1000, while the antibody for […] was used at a dilution of 1:500. The secondary antibodies were used at a dilution of 1:2000. Mouse monoclonal antibodies to 20S proteasome subunits a 1, 2, 3, 5, 6 and 7 (clone MCP 231), 20S proteasome subunit β3 (HC10), 19S regulator ATPase subunit […]1; clone MSS1-104) and 19S regulator ATPase subunit Rpt 4 ([…], p42; clone p42-23) were purchased from Affiniti Research Products, Exeter, United Kingdom. Rabbit polyclonal antisera to ubiquitin-conjugating enzyme E2 (anti-UBC2 antibody) was a gift from Dr. Simon Wing, McGill University, Montreal, Quebec, Canada. Peroxidase-conjugated goat anti-rabbit and rabbit anti-mouse secondary antibodies were from Dako Ltd., Cambridge, United Kingdom. Incubation was carried out for 2 h at room temperature, and developed by chemiluminescence (ECL; Amersham).

[2] = test system: 20S proteasome α-subunits; experiment: Western blotting of 20S proteasome α-subunits in gastrocnemius muscle of MAC16 mice; assay type: in vivo, NMRI mice
[3] = test system: mice bearing the MAC16 tumor; experiment: Weight loss, food and water intake in mice bearing the MAC16 tumor; assay type: in vivo, NMRI mice; settings: doses of HMB greater than 0.125 g/kg, p.o. by gavage daily
Excerpt: This study evaluates the effect of HMB, in comparison with EPA or combination, on weight loss induced by the MAC16 tumor and the mechanisms involved. […] Pure strain male NMRI mice (average weight 25 g) were obtained from our own inbred colony and were transplanted with fragments of the MAC16 tumor s.c. into the flank by means of a trochar, selecting from donor animals with established weight loss as described in Bibby, M. C. et al. Characterization of a transplantable adenocarcinoma of the mouse colon producing cachexia in recipient animals. J. Natl. Cancer Inst., 78: 539-546, 1987. Transplanted animals were fed a rat and mouse breeding diet (Special Diet Services, Witham, United Kingdom) and water ad libitum, and weight loss was evident 10-12 days after tumor implantation. Animals just prior to the development of weight loss were randomized to receive daily either EPA (in olive oil), HMB (in PBS) or the combination as described in the figure legends administered p.o. by gavage, while control animals received either olive oil or PBS. EPA (98% as free acid) was purchased from Biomol Research Laboratories Inc., PA, USA. HMB (as the calcium salt) was obtained from Abbott Laboratories, Columbus, Ohio, USA. All groups contained a minimum of 6 mice. Tumor volume, body weight and food and water intake were monitored daily. […]

[4] = test system: proteasome 20S α subunits, β subunits and p42; experiment: Western blot of PIF-induced proteasome subunit expression in C2C12 myotubes; assay type: cell-based, murine; settings: 50 μM; PIF at 4.2 and 10 nM
Experimental: For Western blot analysis, cytosolic protein (2 to 5 μg) obtained for the above assay were resolved on 10% SDS-PAGE and transferred to 0.45 μm nitrocellulose membrane, which had been blocked with 5% Marvel in PBS, at 4° C. overnight. The primary antibodies were used at a dilution of 1:100 (anti-actin and PKCα); 1:500 (anti-ERK1 and 2); 1:1000 (anti-20S proteasome β-subunit and I-κBα); 1:1500 (anti-20S proteasome α-subunit) or 1:5000 (anti-p42), while the secondary antibodies were used at a dilution of 1:2000. Incubation was carried out for 2 h at room temperature and development was by ECL. Loading was quantitated by actin concentration.

[5] = test system: 20S proteasome β-subunits; experiment: Western blotting of 20S proteasome β-subunits in gastrocnemius muscle of MAC16 mice; assay type: in vivo, NMRI mice
C2C12 myotubes = experiment: PIF-induced total protein degradation in C2C12 myotubes; assay type: cell-based, murine
Experimental: C2C12 myotubes were routinely passaged in DMEM supplemented with 10% FCS, glutamine and 1% penicillin-streptomycin under an atmosphere of 10% CO2 in air at 37 °C. Myotubes were formed by allowing confluent cultures to differentiate in DMEM containing 2% HS, with medium changes every 2 days.
PIF was purified from solid MAC16 tumors (Todorov, P. et al. Characterization of a cancer cachectic factor. Nature, 379: 739-742, 1996.) excised from mice with a weight loss of 20 to 25%. Tumors were homogenised in 10 mM Tris-HCl, pH 8.0, containing 0.5 mM phenylmethylsulfonyl fluoride, 0.5 mM EGTA and 1 mM dithiothreitol at a concentration of 5 ml/g tumor. […]
Myotubes in six-well multidishes were labeled with L-[2, 6^−3H] phenylalanine (0.67 mCi/mmole) for 24 h in 2 ml DMEM containing 2% HS. They were then washed three times in PBS followed by a 2 h incubation at 37° C. in DMEM without phenol red until no more radioactivity appeared in the supernatant. These myotubes were then further incubated for 24 h in the presence of PIF, with and without EPA or HMB, in fresh DMEM without phenol red, to prevent quenching of counts, and in the presence of 2 mM cold phenylalanine to prevent reincorporation of radioactivity. The amount of radioactivity released into the medium was expressed as a percentage of control cultures not exposed to PIF to determine total protein degradation.

[6] = HMB 0.25 g/kg, EPA 0.6 g/kg or combination, 3 days

CC(C)(O)CC(=O)O [HMB, beta-hydroxy-beta-methylbutyric acid]
expression of E214k [1]: reduced
expression of 20S proteasome α-subunits [2, 6]: attenuated
reduction of protein expression of 20S α-subunits ([2]; summary of Examples I-IV): at least 50%
weight loss [3]: significant reduction in weight loss
attenuation of PIF-increased expression of proteasome 20S α subunits, β subunits and p42 [4]: attenuated
expression of 20S proteasome β-subunits [5, 6]: attenuated
reduction of protein expression of 20S β-subunits ([5]; summary of Examples I-IV): at least 50%
attenuation of PIF induced protein degradation (C2C12 myotubes; 25 μM HMB, at low, but not at high concentrations of PIF): some attenuation
attenuation of PIF induced protein degradation (C2C12 myotubes; 50 μM, 24 h after addition of PIF): equally effective
